Results as given in EP4545549B1, “INSECT NEUROPEPTIDES” (Solasta Bio Limited, priority 2023, dated 2025).
Like-named read-outs stand apart in the source and are kept apart here. Residues, ends and D or L forms follow the SMILES beside them.

Tests used:
[1] = test system: Amrasca biguttula (leaf hopper); details: unformulated SB-P-46; 3 and 7 days after application; Figure 16
Description: (§1) The data has been processed in the ARM Field Trials software under license.

Aphis fabae = details: unformulated SB-P-46; for reduction in naturally infested Aphis fabae numbers as a percentage of untreated control crop: vining peas
Description: as §1

Aphis gossypii = details: Greece; cotton; unformulated SB-P-46; counted 3 days following application; Figure 14
Description: as §1
AgriScience conducted a field trial in Greece, investigating the efficacy of insecticidal peptides on aphids on cotton crop.

Bumblebee = assay: Bee oral toxicity test (adapted from OECD Test No. 247: Bumblebee, Acute Oral Toxicity Test); type: in vivo; details: after 96 hours of application; compared with sucrose or vehicle and Imidacloprid; Figure 10
Protocol: Bee oral testing protocol was carried out adapted from OECD Test No. 247: Bumblebee, Acute Oral Toxicity Test. The toxicity of SB-P-46 was compared with a negative control of sucrose or vehicle, and with a current commercial insecticide Imidacloprid.

Myzus persicae = details: unformulated SB-P-46; leaf dip; mortality assessed at 72, 96 and 120 hours; compared to vehicle and Spirotetramat; Figures 6 and 7
Protocol: The assay was carried out based on IRAC susceptibility test method 019 (https://irac-online.org/methods/aphids-adultnymphs/).
Dip a 2.5 cm leaf disc into 3 ml of treatment solution allowing the treatment to coat the leaf. Leave the disc to dry for 1 hour and place onto the set agar. Place insects (aphids) onto each of the leaf discs. Each unit is sealed with a close-fitting, ventilated lid. Place the agar dishes in a small plastic tray lined with moist tissue paper and ensure the water trays in the bottom of the incubator are filled with clean water and place within the incubator. An assessment of mortality is made at 72, 96 and 120 hours. Leaf dip assays were performed with unformulated SB-P-46, and compared to a negative control vehicle and a current commercial insecticide Spirotetramat.

Compound: CC(C)C[C@H](NC(=O)[C@H](CCCNC(=N)N)NC(=O)[C@@H]1CCCN1C(=O)[C@H](CO)NC(=O)[C@H](Cc1ccccc1)NC(=O)[C@@H]1CCCN1C(=O)[C@@H]1CCCN1C(=O)[C@H](CO)NC(=O)[C@H](Cc1ccc(O)cc1)NC(=O)[C@@H]1CCCN1C(=O)[C@@H]1CCCN1C(=O)[C@@H](N)CO)C(N)=O [SB-P-46, [Hy]-SPPYSPPFSPRL-[NH2]] (H-SPPYSPPFSPRL-NH2)
- activity against naturally infested Amrasca biguttula (leaf hopper) in field trials [1]: acted comparably to Flipper insecticide
- reduction in naturally infested Aphis fabae numbers as a percentage of untreated control crop (Aphis fabae; Wigtoft location, counted 4 days following application, Figure 12): similarly efficacious activity
- reduction in naturally infested Aphis fabae numbers as a percentage of untreated control crop (Aphis fabae; field trial 1, Chatteris location, counted 14 days following application, Figure 11): performed comparably to the conventional insecticides Stealth and Teppeki (sprayed as Treatment 1), followed by Aphox (sprayed as Treatment 2)
- reduction in naturally infested Aphis fabae numbers as a percentage of untreated control crop (Aphis fabae; third trial (slot trial), Holbeach location, counted 7 days following application, low aphid infestation, Figure 13): performed as efficaciously as the conventional pesticides tested
- activity against naturally infested Aphis fabae in field trials (Aphis fabae; 4 and 8 days after application, Figure 15): acted comparably to Hallmark Zeon insecticide
- reduction in naturally infested Aphis gossypii numbers as a percentage of untreated control crop (Aphis gossypii): performing with close efficacy to the conventional pesticide equivalent tested
- bee oral toxicity (% survival) (Bumblebee): far lower toxicity to key pollinator species such as bees compared to broad spectrum chemical insecticides such as Imidacloprid
- activity against Myzus persicae (Myzus persicae): good activity
